According to article PMC11830721 (Frontiers in Pharmacology, 2025):

Experiments:
Experiment in all cases: SelectScreen kinase selectivity assay
Format in all cases: biochemical
Conditions in all cases: ten-dose 0.25–128 μM
ABL2 = ABL2 (Homo sapiens, UniProt P42684)
Protocol: (§1) Following the standardized kinase activity assay protocol as previously reported, we utilized the SelectScreen Kinase Profiling Service (Thermo Fisher Scientific) to determine the kinase selectivity profile of FLIN-4 ([van der Wel et al., 2020]). Through a ten-dose dilution series ranging from 0.25 μM to 128 μM in dose-response experiments, we precisely measured the inhibitory effect of FLIN-4 on the substrate phosphorylation reactions catalyzed by a panel of kinases, and thus ascertained the half-maximal inhibitory concentrations (IC50) for each kinase.

ALK = ALK (Homo sapiens, UniProt Q9UM73)
Protocol: as §1

AXL = AXL (Homo sapiens, UniProt P30530)
Protocol: as §1

BLK = BLK (Homo sapiens, UniProt P51451)
Protocol: as §1

BMX = BMX (Homo sapiens, UniProt P51813)
Protocol: as §1

CDK1 = CDK1 (Homo sapiens, UniProt P06493)
Protocol: as §1

CDK2 = CDK2 (Homo sapiens, UniProt P24941)
Protocol: as §1

CSF1R = CSF1R (Homo sapiens, UniProt P07333)
Protocol: as §1

DDR2 = DDR2 (Homo sapiens, UniProt Q16832)
Protocol: as §1

EPHA1 = EPHA1 (Homo sapiens, UniProt P21709)
Protocol: as §1

EPHA2 = EPHA2 (Homo sapiens, UniProt P29317)
Protocol: as §1

EPHA3 = EPHA3 (Homo sapiens, UniProt P29320)
Protocol: as §1

EPHA4 = EPHA4 (Homo sapiens, UniProt P54764)
Protocol: as §1

EPHA6 = EPHA6 (Homo sapiens, UniProt Q9UF33)
Protocol: as §1

EPHB1 = EPHB1 (Homo sapiens, UniProt P54762)
Protocol: as §1

EPHB2 = EPHB2 (Homo sapiens, UniProt P29323)
Protocol: as §1

EPHB4 = EPHB4 (Homo sapiens, UniProt P54760)
Protocol: as §1

ERBB2 = ERBB2 (Homo sapiens, UniProt P04626)
Protocol: as §1

FGFR1 = FGFR1 (Homo sapiens, UniProt P11362)
Protocol: as §1

FGFR4 = FGFR4 (Homo sapiens, UniProt P22455)
Protocol: as §1

FRK = FRK (Homo sapiens, UniProt P42685)
Protocol: as §1

FYN = FYN (Homo sapiens, UniProt P06241)
Protocol: as §1

HCK = HCK (Homo sapiens, UniProt P08631)
Protocol: as §1

IGF1R = IGF1R (Homo sapiens, UniProt P08069)
Protocol: as §1

ITK = ITK (Homo sapiens, UniProt Q08881)
Protocol: as §1

JAK1 = JAK1 (Homo sapiens, UniProt P23458)
Protocol: as §1

JAK3 = JAK3 (Homo sapiens, UniProt P52333)
Protocol: as §1

KIT = KIT (Homo sapiens, UniProt P10721)
Protocol: as §1

LTK = LTK (Homo sapiens, UniProt P29376)
Protocol: as §1

LYN = LYN (Homo sapiens, UniProt P07948)
Protocol: as §1

MERTK = MERTK (Homo sapiens, UniProt Q12866)
Protocol: as §1

MET = MET (Homo sapiens, UniProt P08581)
Protocol: as §1

NTRK1 = NTRK1 (Homo sapiens, UniProt P04629)
Protocol: as §1

NTRK2 = NTRK2 (Homo sapiens, UniProt Q16620)
Protocol: as §1

NTRK3 = NTRK3 (Homo sapiens, UniProt Q16288)
Protocol: as §1

PDGFRA = PDGFRA (Homo sapiens, UniProt P16234)
Protocol: as §1

PDGFRB = PDGFRB (Homo sapiens, UniProt P09619)
Protocol: as §1

PIM1 = PIM1 (Homo sapiens, UniProt P11309)
Protocol: as §1

PLK1 = PLK1 (Homo sapiens, UniProt P53350)
Protocol: as §1

YES1 = YES1 (Homo sapiens, UniProt P07947)
Protocol: as §1

ZAK = ZAK (Homo sapiens, UniProt Q9NYL2)
Protocol: as §1

ZAP70 = ZAP70 (Homo sapiens, UniProt P43403)
Protocol: as §1

Measured: IC50

MET, sequence (P08581 25-1390): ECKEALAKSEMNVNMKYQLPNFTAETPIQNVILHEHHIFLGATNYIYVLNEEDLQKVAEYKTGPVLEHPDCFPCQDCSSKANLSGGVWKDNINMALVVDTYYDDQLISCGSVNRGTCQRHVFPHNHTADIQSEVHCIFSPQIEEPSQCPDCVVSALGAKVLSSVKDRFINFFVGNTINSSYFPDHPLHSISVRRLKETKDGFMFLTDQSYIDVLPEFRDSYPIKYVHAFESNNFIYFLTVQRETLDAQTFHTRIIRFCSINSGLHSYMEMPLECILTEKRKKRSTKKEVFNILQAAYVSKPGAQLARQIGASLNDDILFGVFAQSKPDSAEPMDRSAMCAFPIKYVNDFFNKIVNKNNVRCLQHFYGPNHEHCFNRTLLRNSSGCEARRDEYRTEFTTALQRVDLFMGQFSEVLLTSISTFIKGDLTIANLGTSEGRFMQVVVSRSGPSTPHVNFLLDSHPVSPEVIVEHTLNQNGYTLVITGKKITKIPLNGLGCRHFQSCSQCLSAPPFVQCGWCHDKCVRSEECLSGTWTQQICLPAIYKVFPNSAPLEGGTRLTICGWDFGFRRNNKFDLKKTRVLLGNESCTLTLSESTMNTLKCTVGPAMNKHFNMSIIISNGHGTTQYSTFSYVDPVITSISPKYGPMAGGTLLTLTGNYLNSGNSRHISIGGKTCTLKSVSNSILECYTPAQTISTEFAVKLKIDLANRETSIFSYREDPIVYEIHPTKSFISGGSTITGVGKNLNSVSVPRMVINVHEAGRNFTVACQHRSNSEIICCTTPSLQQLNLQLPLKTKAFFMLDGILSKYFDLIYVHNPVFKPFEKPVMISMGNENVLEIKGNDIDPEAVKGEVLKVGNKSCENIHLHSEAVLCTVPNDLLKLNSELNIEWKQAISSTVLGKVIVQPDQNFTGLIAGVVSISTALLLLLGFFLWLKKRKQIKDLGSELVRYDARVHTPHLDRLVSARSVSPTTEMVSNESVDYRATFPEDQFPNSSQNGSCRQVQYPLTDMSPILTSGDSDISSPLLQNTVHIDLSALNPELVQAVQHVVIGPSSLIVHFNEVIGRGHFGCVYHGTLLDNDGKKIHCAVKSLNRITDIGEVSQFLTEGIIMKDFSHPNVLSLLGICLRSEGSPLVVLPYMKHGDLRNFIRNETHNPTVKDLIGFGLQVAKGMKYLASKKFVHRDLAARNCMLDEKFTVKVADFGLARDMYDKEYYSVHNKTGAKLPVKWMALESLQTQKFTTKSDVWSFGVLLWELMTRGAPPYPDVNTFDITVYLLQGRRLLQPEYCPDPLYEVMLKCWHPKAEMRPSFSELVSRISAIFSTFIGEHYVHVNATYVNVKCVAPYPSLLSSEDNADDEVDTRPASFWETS
AXL, sequence (P30530 26-894): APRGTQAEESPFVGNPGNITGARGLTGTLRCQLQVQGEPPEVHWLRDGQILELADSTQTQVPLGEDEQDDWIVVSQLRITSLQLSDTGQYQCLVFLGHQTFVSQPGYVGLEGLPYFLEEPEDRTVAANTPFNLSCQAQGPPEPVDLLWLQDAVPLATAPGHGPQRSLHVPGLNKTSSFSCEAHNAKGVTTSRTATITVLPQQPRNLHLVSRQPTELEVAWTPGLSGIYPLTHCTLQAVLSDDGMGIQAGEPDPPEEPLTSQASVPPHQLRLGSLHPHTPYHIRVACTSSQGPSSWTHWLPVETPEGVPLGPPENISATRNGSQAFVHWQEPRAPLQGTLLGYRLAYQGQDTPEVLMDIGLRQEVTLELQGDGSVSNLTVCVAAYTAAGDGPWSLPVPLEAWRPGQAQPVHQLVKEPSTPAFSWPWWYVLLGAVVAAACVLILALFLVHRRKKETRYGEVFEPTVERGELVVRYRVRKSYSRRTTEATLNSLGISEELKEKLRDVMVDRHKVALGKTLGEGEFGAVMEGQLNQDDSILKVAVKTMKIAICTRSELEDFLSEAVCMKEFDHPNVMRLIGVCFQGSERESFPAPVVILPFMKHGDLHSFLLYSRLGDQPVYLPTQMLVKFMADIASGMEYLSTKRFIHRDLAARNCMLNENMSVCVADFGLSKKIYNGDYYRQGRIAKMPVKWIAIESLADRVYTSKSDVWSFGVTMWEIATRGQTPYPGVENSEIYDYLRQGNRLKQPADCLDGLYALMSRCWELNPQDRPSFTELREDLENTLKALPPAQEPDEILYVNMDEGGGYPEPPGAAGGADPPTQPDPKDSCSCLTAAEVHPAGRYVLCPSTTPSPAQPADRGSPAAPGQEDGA
CSF1R, sequence (P07333 20-972): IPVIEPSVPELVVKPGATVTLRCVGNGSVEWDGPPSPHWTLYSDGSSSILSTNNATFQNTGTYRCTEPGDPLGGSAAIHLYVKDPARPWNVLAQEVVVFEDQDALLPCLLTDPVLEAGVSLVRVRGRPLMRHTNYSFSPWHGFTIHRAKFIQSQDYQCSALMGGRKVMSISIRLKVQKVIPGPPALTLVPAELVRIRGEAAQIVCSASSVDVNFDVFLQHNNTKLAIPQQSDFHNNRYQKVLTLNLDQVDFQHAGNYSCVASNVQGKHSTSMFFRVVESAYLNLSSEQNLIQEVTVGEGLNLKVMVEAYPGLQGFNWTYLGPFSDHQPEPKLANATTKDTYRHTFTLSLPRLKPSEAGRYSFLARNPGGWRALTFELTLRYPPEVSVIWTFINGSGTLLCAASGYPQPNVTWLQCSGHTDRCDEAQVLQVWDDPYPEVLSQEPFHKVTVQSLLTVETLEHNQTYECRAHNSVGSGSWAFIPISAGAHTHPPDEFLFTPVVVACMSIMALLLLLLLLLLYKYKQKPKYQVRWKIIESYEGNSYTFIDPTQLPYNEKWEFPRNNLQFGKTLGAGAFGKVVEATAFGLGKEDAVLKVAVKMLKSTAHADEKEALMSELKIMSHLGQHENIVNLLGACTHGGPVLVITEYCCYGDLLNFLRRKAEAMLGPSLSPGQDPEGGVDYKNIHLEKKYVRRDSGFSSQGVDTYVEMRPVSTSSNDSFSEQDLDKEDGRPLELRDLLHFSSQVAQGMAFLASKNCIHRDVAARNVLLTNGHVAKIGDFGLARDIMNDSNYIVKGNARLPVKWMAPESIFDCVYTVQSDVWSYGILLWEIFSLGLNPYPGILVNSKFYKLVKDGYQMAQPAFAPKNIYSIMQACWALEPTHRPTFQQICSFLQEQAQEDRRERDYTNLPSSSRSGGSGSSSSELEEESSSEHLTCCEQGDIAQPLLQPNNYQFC
CDK1, sequence (P06493 whole entry): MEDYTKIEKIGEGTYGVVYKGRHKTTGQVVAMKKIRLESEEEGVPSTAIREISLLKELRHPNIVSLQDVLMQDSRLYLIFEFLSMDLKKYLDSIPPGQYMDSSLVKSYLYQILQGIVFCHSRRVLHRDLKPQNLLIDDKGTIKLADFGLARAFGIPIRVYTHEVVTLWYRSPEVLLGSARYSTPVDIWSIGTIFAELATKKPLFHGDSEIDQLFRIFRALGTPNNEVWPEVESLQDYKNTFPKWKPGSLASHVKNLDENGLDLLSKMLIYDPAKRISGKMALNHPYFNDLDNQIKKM
CDK1, sequence (P14635 whole entry partner): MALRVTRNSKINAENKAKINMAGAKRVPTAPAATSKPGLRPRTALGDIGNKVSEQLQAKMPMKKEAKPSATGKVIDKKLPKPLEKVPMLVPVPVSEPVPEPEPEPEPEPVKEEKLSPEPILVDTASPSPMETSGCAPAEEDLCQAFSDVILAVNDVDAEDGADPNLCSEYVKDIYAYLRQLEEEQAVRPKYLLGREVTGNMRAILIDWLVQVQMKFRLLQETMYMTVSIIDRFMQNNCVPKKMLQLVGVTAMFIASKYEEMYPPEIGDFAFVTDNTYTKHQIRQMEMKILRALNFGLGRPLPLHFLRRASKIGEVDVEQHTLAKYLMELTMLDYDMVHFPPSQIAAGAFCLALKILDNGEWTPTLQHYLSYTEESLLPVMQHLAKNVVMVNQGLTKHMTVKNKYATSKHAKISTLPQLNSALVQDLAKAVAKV
FGFR4, sequence (P22455 22-802): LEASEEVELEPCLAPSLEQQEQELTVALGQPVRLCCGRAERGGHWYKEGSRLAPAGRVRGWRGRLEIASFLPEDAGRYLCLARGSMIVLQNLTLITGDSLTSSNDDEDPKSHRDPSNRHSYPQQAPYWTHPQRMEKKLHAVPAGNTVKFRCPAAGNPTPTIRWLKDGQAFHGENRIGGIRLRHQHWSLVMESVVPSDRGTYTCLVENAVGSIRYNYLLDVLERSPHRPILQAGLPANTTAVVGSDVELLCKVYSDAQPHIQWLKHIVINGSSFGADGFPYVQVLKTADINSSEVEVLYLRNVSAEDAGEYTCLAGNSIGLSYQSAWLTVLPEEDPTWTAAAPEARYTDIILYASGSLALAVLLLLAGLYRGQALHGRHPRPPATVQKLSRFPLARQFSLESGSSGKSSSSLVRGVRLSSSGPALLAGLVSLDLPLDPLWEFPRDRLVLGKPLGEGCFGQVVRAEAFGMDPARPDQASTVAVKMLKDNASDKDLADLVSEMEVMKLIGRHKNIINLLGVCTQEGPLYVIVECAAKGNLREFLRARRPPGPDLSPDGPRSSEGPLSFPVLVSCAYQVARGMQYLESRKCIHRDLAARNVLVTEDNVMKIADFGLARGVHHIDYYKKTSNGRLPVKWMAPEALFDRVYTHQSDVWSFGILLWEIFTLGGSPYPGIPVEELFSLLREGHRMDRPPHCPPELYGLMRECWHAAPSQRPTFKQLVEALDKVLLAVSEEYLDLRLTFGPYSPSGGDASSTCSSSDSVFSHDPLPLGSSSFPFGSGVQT
PIM1, sequence (P11309 whole entry): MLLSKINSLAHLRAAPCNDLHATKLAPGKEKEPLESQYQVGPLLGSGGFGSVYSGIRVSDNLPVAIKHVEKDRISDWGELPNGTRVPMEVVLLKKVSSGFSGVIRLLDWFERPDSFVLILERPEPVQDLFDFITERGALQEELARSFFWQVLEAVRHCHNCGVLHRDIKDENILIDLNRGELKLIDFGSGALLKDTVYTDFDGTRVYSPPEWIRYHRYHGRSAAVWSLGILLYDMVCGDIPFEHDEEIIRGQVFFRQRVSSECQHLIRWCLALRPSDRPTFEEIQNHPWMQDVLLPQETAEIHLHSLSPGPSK

CCc1nc(C(N)=O)c(Nc2ccc(N3CCC(Nc4ccccc4)CC3)c(OC)c2)nc1NC1CCOC(C(O)CO)C1 (stereo not drawn) [FLIN-4]
> 10 µM: ABL2 | ALK | AXL | BLK | BMX | CDK1 | CDK2 | CSF1R | DDR2 | EPHA1 | EPHA2 | EPHA3 | EPHA4 | EPHA6 | EPHB1 | EPHB2 | EPHB4 | ERBB2 | FGFR1 | FGFR4 | FRK | FYN | HCK | IGF1R | ITK | JAK1 | JAK3 | KIT | LTK | LYN | MERTK | MET | NTRK1 | NTRK2 | NTRK3 | PDGFRA | PDGFRB | PIM1 | PLK1 | YES1 | ZAK | ZAP70
